Experimental data reported in ChEMBL document CHEMBL5104202, “Structure-Uptake Relationship Studies of Oxazolidinones in Gram-Negative ESKAPE Pathogens” (J Med Chem, 2022).

Legend:
Type in all cases: functional, organism-based
Escherichia coli [1] = experiment: Antibacterial activity against efflux pump lacking Escherichia coli assessed as inhibition of bacterial growth
Pseudomonas aeruginosa [2] = experiment: Antibacterial activity against efflux pump lacking Pseudomonas aeruginosa assessed as inhibition of bacterial growth
Pseudomonas aeruginosa [3] = experiment: Antibacterial activity against wild type Pseudomonas aeruginosa assessed as inhibition of bacterial growth
Pseudomonas aeruginosa [4] = experiment: Antibacterial activity against recombinant OM pore producing Pseudomonas aeruginosa assessed as inhibition of bacterial growth
Pseudomonas aeruginosa [5] = experiment: Antibacterial activity against efflux pump lacking/recombinant OM pore producing Pseudomonas aeruginosa assessed as inhibition of bacterial growth
Acinetobacter baumannii [6] = experiment: Antibacterial activity against efflux pump lacking/recombinant OM pore producing Acinetobacter baumannii assessed as inhibition of bacterial growth
Escherichia coli [7] = experiment: Antibacterial activity against wild type Escherichia coli assessed as inhibition of bacterial growth
Acinetobacter baumannii [8] = experiment: Antibacterial activity against recombinant OM pore producing Acinetobacter baumannii assessed as inhibition of bacterial growth
Acinetobacter baumannii [9] = experiment: Antibacterial activity against wild type Acinetobacter baumannii assessed as inhibition of bacterial growth
Acinetobacter baumannii [10] = experiment: Antibacterial activity against efflux pump lacking Acinetobacter baumannii assessed as inhibition of bacterial growth
Escherichia coli [11] = experiment: Antibacterial activity against efflux pump lacking/recombinant OM pore producing Escherichia coli assessed as inhibition of bacterial growth
Escherichia coli [12] = experiment: Antibacterial activity against recombinant OM pore producing Escherichia coli assessed as inhibition of bacterial growth

Compound | IC50 (Escherichia coli [1]) [µM] | IC50 (Pseudomonas aeruginosa [2]) [µM] | IC50 (Pseudomonas aeruginosa [3]) [µM] | IC50 (Pseudomonas aeruginosa [4]) [µM] | IC50 (Pseudomonas aeruginosa [5]) [µM] | IC50 (Acinetobacter baumannii [6]) [µM] | IC50 (Escherichia coli [7]) [µM] | IC50 (Acinetobacter baumannii [8]) [µM] | IC50 (Acinetobacter baumannii [9]) [µM] | IC50 (Acinetobacter baumannii [10]) [µM] | IC50 (Escherichia coli [11]) [µM] | IC50 (Escherichia coli [12]) [µM]
O=C1O[C@@H](CO)CN1c1ccc(-c2cc(F)cc(F)c2)c(F)c1 | > 100 | > 100 | > 100 | > 100 | > 100 | > 100 | > 100 | > 100 | > 100 | > 100 | > 100 | > 100
O=C1O[C@@H](CO)CN1c1ccc(-c2cccc(S(=O)(=O)C(F)(F)F)c2)c(F)c1 | 19.3 | > 100 | > 100 | > 100 | > 100 | 38.5 | > 100 | > 100 | > 100 | 48.8 | 12.5 | 21.2
C[n+]1ccccc1-c1ccc(N2C[C@H](CO)OC2=O)cc1F | 72.3 | > 100 | > 100 | > 100 | 40.4 | 33.3 | > 100 | > 100 | > 100 | > 100 | 60.4 | > 100
CCC[n+]1ccc(-c2ccc(N3C[C@H](CO)OC3=O)cc2F)cc1 | 12.7 | > 100 | > 100 | > 100 | > 100 | 19.8 | 43.9 | 19.8 | > 100 | 89.7 | 16.6 | 28.3
O=C1O[C@@H](CO)CN1c1ccc(-c2cc[n+](Cc3ccccc3)cc2)c(F)c1 | 15.5 | 4.6 | > 100 | 41.7 | 1.1 | 13 | 51.6 | 15.6 | > 100 | 23.4 | 15.6 | 23.3
NCC#Cc1ccc(N2C[C@H](CO)OC2=O)cc1F | > 100 | > 100 | > 100 | > 100 | > 100 | > 100 | > 100 | > 100 | > 100 | > 100 | > 100 | > 100
N[C@@H](Cc1cccc(-c2ccc(N3C[C@H](CO)OC3=O)cc2F)c1)C(=O)O | > 100 | > 100 | > 100 | > 100 | > 100 | > 100 | > 100 | > 100 | > 100 | > 100 | > 100 | > 100
O=C1O[C@@H](CO)CN1c1ccc(-c2ccc3c(c2)OCO3)c(F)c1 | 0.3 | 2.4 | > 100 | > 100 | 0.3 | 1.5 | 23 | > 100 | > 100 | 2.4 | 0.3 | 2.4
O=C1O[C@@H](CO)CN1c1ccc(-c2ccccc2OC(F)(F)F)c(F)c1 | 9.3 | 75.6 | > 100 | > 100 | 29.9 | 24.8 | 42.6 | 59.1 | > 100 | 33.2 | 21.9 | 46.3
CC(C(=O)NCC#Cc1ccc(N2C[C@H](CO)OC2=O)cc1F)N1CCNCC1 (stereo partly specified) | > 100 | > 100 | > 100 | > 100 | > 100 | > 100 | > 100 | > 100 | > 100 | > 100 | > 100 | > 100
O=C1O[C@@H](CO)CN1c1ccc(C#Cc2cc(Cl)cc(Cl)c2)c(F)c1 | 26.1 | 64.9 | > 100 | > 100 | 16.2 | > 100 | 74.8 | > 100 | > 100 | > 100 | 3.6 | 12.8
C[n+]1cccc(-c2ccc(N3C[C@H](CO)OC3=O)cc2F)c1 | 70.6 | > 100 | > 100 | > 100 | > 100 | > 100 | > 100 | > 100 | > 100 | > 100 | 88.8 | > 100
CC(C)(C)OC(=O)NCC#Cc1ccc(N2C[C@H](CO)OC2=O)cc1F | 83.4 | > 100 | > 100 | > 100 | > 100 | > 100 | > 100 | > 100 | > 100 | > 100 | 64.7 | 74.3
CC(C)(C)OC(=O)NNC(=O)C(CC#Cc1ccc(N2C[C@H](CO)OC2=O)cc1F)NC(=O)OC(C)(C)C (stereo partly specified) | 13.3 | > 100 | > 100 | > 100 | > 100 | > 100 | > 100 | > 100 | > 100 | > 100 | 56.1 | 51.4
N/C(=N/O)c1ccc(-c2ccc(N3C[C@H](CO)OC3=O)cc2F)cc1 | 0.6 | 5.1 | > 100 | 63.6 | 1.8 | 0.9 | 55.9 | 2.8 | 22.1 | 1.2 | 1 | 7.5
CC(=O)N1CCN(CC#Cc2ccc(N3C[C@H](CO)OC3=O)cc2F)CC1 | > 100 | > 100 | > 100 | > 100 | > 100 | > 100 | > 100 | > 100 | > 100 | > 100 | > 100 | > 100
O=C1O[C@@H](CO)CN1c1ccc(-c2ccc(-c3ccncc3)cc2)c(F)c1 | > 100 | 92.1 | > 100 | > 100 | 1 | > 100 | > 100 | > 100 | > 100 | > 100 | 75.2 | > 100
Cc1nn(C)c(C)c1C#Cc1ccc(N2C[C@H](CO)OC2=O)cc1F | 86.3 | > 100 | > 100 | > 100 | > 100 | > 100 | > 100 | > 100 | > 100 | > 100 | 3.4 | 1.2
